Results published in ChEMBL document CHEMBL3425423, “Hydroxy tricyclic 1,5-naphthyridinone oxabicyclooctane-linked novel bacterial topoisomerase inhibitors as broad-spectrum antibacterial agents-SAR of RHS moiety (Part-3)” (Bioorg Med Chem Lett, 2015).
Converted amounts (≈) assume the structure as drawn.

Tests used:
Format in all cases: functional
[1] = system: Moraxella catarrhalis; assay: Antibacterial activity against Moraxella catarrhalis ATCC 25238
[2] = system: Acinetobacter baumannii; assay: Antibacterial activity against Acinetobacter baumannii IID876
[3] = system: Enterococcus faecium; assay: Antibacterial activity against VanA-type vancomycin-resistant Enterococcus faecium A2373
[4] = system: Enterococcus faecalis; assay: Antibacterial activity against Enterococcus faecalis ATCC 29212
[5] = system: Staphylococcus aureus; assay: Antibacterial activity against Staphylococcus aureus Smith; details: Staphylococcus aureus, Smith; read-out: MIC
[6] = system: Haemophilus influenzae; assay: Antibacterial activity against Haemophilus influenzae ATCC 49247
[7] = system: Escherichia coli; assay: Antibacterial activity against Escherichia coli ATCC 25922
[8] = system: Streptococcus pneumoniae; assay: Antibacterial activity against Streptococcus pneumoniae IID554; details: Streptococcus pneumoniae, IID554; read-out: MIC
[9] = system: Pseudomonas aeruginosa; assay: Antibacterial activity against Pseudomonas aeruginosa PAO1
[10] = system: Staphylococcus aureus; assay: Ratio of MIC for quinolone-resistant Staphylococcus aureus MS5935 to MIC for quinolone-sensitive Staphylococcus aureus
[11] = Moraxella catarrhalis, ATCC 25238, read-out: MIC
[12] = Acinetobacter baumannii, IID876, read-out: MIC
[13] = Enterococcus faecium, A2373, read-out: MIC
[14] = Enterococcus faecalis, ATCC 29212, read-out: MIC
[15] = Haemophilus influenzae, ATCC 49247, read-out: MIC
[16] = Escherichia coli, ATCC 25922, read-out: MIC
[17] = Pseudomonas aeruginosa, PAO1, read-out: MIC

`CC1COc2cnc(CNC34CCC(C[C@]5(O)Cn6c(=O)ccc7ncc(F)c5c76)(CC3)OC4)cc2O1` (stereo in doubt; 22) was tested, and the MIC [1] was 32 µg/mL (≈ 62.9 µM), the MIC [2] was 32 µg/mL (≈ 62.9 µM) and the MIC [3] was 32 µg/mL (≈ 62.9 µM). It also gave an MIC [4] of 32 µg/mL (≈ 62.9 µM), an MIC [5] of 4 µg/mL (≈ 7.87 µM) and an MIC [6] of 32 µg/mL (≈ 62.9 µM). It also gave an MIC [7] of 32 µg/mL (≈ 62.9 µM), an MIC [8] of 4 µg/mL (≈ 7.87 µM) and an MIC [9] of 32 µg/mL (≈ 62.9 µM).
Compound `Cc1cc2c(nc1CNC13CCC(C[C@]4(O)Cn5c(=O)ccc6ncc(F)c4c65)(CC1)OC3)NC(=O)CO2` has an MIC [1, 11] of 0.5 µg/mL (≈ 0.959 µM), an MIC [2, 12] of 4 µg/mL (≈ 7.67 µM) and an MIC [3, 13] of 32 µg/mL (≈ 61.4 µM). For the same compound, the MIC [4, 14] was 8 µg/mL (≈ 15.3 µM), the MIC [5] was 1.5 µg/mL (≈ 2.88 µM) and the MIC [6, 15] was 4 µg/mL (≈ 7.67 µM). It also gave an MIC [7, 16] of 8 µg/mL (≈ 15.3 µM), an MIC [8] of 4 µg/mL (≈ 7.67 µM) and an MIC [9, 17] of 32 µg/mL (≈ 61.4 µM).
`O=c1ccc2ncc(F)c3c2n1C[C@@]3(O)CC12CCC(NCc3cc4c(cn3)OCS4)(CC1)CO2` was tested, and the MIC [1, 11] was 0.5 µg/mL (≈ 1.01 µM), the MIC [2, 12] was 0.5 µg/mL (≈ 1.01 µM) and the MIC [3, 13] was 8 µg/mL (≈ 16.1 µM). The MIC [4, 14] was 2 µg/mL (≈ 4.03 µM), the MIC [5] was 0.25 µg/mL (≈ 0.503 µM) and the MIC [6, 15] was 4 µg/mL (≈ 8.06 µM). It also gave an MIC [7, 16] of 8 µg/mL (≈ 16.1 µM), an MIC [8] of 0.25 µg/mL (≈ 0.503 µM) and an MIC [9, 17] of 32 µg/mL (≈ 64.4 µM).
Compound `O=C1COc2ccc(CNC34CCC(C[C@]5(O)Cn6c(=O)ccc7ncc(F)c5c76)(CC3)OC4)nc2N1` has an MIC [1, 11] of 0.25 µg/mL (≈ 0.493 µM), an MIC [2, 12] of 2 µg/mL (≈ 3.94 µM) and an MIC [3, 13] of 8 µg/mL (≈ 15.8 µM). For the same compound, the MIC [4, 14] was 4 µg/mL (≈ 7.88 µM), the MIC [5] was 0.25 µg/mL (≈ 0.493 µM) and the MIC [6, 15] was 1 µg/mL (≈ 1.97 µM). The MIC [7, 16] was 4 µg/mL (≈ 7.88 µM), the MIC [8] was 0.25 µg/mL (≈ 0.493 µM) and the MIC [9, 17] was 16 µg/mL (≈ 31.5 µM).
`O=c1ccc2ncc(F)c3c2n1C[C@@]3(O)CC12CCC(NCCCc3cc(F)ccc3F)(CC1)CO2` was tested, and the MIC [2, 12] was 2 µg/mL (≈ 4 µM), the MIC [3, 13] was 32 µg/mL (≈ 64.1 µM) and the MIC [4, 14] was 16 µg/mL (≈ 32 µM). For the same compound, the Ratio [10] was under 4, the MIC [5] was 0.5 µg/mL (≈ 1 µM) and the MIC [7, 16] was 16 µg/mL (≈ 32 µM). The MIC [8] was 1 µg/mL (≈ 2 µM) and the MIC [9, 17] was 32 µg/mL (≈ 64.1 µM).
Work on `O=c1ccc2ncc(F)c3c2n1C[C@@]3(O)CC12CCC(NCc3cc4c(cc3Cl)OCCO4)(CC1)CO2` yielded an MIC [1, 11] of 0.5 µg/mL (≈ 0.947 µM), an MIC [2, 12] of 8 µg/mL (≈ 15.2 µM) and an MIC [3, 13] of 8 µg/mL (≈ 15.2 µM). It also gave an MIC [4, 14] of 4 µg/mL (≈ 7.58 µM), an MIC [5] of 0.25 µg/mL (≈ 0.474 µM) and an MIC [6, 15] of 32 µg/mL (≈ 60.6 µM). The MIC [7, 16] was 32 µg/mL (≈ 60.6 µM), the MIC [8] was 0.5 µg/mL (≈ 0.947 µM) and the MIC [9, 17] was 32 µg/mL (≈ 60.6 µM).
With `O=c1ccc2ncc(F)c3c2n1C[C@@]3(O)CC12CCC(NCc3cc4c(c(Cl)c3Cl)OCCO4)(CC1)CO2` the MIC [1, 11] was 0.5 µg/mL (≈ 0.889 µM), the MIC [2, 12] was 32 µg/mL (≈ 56.9 µM) and the MIC [3, 13] was 32 µg/mL (≈ 56.9 µM). The MIC [4, 14] was 8 µg/mL (≈ 14.2 µM), the MIC [5] was 1 µg/mL (≈ 1.78 µM) and the MIC [6, 15] was 32 µg/mL (≈ 56.9 µM). The MIC [7, 16] was 32 µg/mL (≈ 56.9 µM), the MIC [8] was 4 µg/mL (≈ 7.11 µM) and the MIC [9, 17] was 32 µg/mL (≈ 56.9 µM).
Work on `O=c1[nH]c2c(F)ccc(F)c2cc1CNC12CCC(C[C@]3(O)Cn4c(=O)ccc5ncc(F)c3c54)(CC1)OC2` yielded an MIC [2, 12] of 64 µg/mL (≈ 119 µM), an MIC [3, 13] of 64 µg/mL (≈ 119 µM) and an MIC [4, 14] of 32 µg/mL (≈ 59.4 µM). For the same compound, the Ratio [10] was under 4, the MIC [5] was 2 µg/mL (≈ 3.71 µM) and the MIC [7, 16] was 64 µg/mL (≈ 119 µM). The MIC [8] was 2 µg/mL (≈ 3.71 µM) and the MIC [9, 17] was 64 µg/mL (≈ 119 µM).
`O=c1ccc2ncc(F)c3c2n1C[C@@]3(O)CC12CCC(NCc3cc4c(cn3)OCCC4)(CC1)CO2` gave an MIC [2, 12] of 4 µg/mL (≈ 8.12 µM), an MIC [3, 13] of 16 µg/mL (≈ 32.5 µM) and an MIC [4, 14] of 4 µg/mL (≈ 8.12 µM). It also gave an MIC [5] of 0.13 µg/mL (≈ 0.264 µM), an MIC [6, 15] of 4 µg/mL (≈ 8.12 µM) and an MIC [7, 16] of 16 µg/mL (≈ 32.5 µM). The MIC [8] was 0.5 µg/mL (≈ 1.02 µM) and the MIC [9, 17] was 32 µg/mL (≈ 65 µM).
`CN1CCN(C)c2nc(CNC34CCC(C[C@]5(O)Cn6c(=O)ccc7ncc(F)c5c76)(CC3)OC4)ccc21` showed an MIC [1, 11] of 32 µg/mL (≈ 61.5 µM), an MIC [2, 12] of 32 µg/mL (≈ 61.5 µM) and an MIC [3, 13] of 32 µg/mL (≈ 61.5 µM). It also gave an MIC [4, 14] of 32 µg/mL (≈ 61.5 µM), an MIC [5] of 8 µg/mL (≈ 15.4 µM) and an MIC [6, 15] of 32 µg/mL (≈ 61.5 µM). The MIC [7, 16] was 32 µg/mL (≈ 61.5 µM), the MIC [8] was 32 µg/mL (≈ 61.5 µM) and the MIC [9, 17] was 32 µg/mL (≈ 61.5 µM).
`Cn1c(=O)c(CNC23CCC(C[C@]4(O)Cn5c(=O)ccc6ncc(F)c4c65)(CC2)OC3)cc2ccccc21` gave an MIC [2, 12] of 64 µg/mL (≈ 124 µM), an MIC [3, 13] of 64 µg/mL (≈ 124 µM) and an MIC [4, 14] of 64 µg/mL (≈ 124 µM). It also gave a Ratio [10] of under 4, an MIC [5] of 16 µg/mL (≈ 31 µM) and an MIC [7, 16] of 64 µg/mL (≈ 124 µM). It also gave an MIC [8] of 8 µg/mL (≈ 15.5 µM) and an MIC [9, 17] of 64 µg/mL (≈ 124 µM).
